The test system of series [1] is A549. In words: MTT assay, anti-proliferative effect on A549 cells. The series is classed as cell-based, human. The following applies: Homo sapiens, A549, 72 h, read-out: IC50 A549. On the procedure: (§1) A549, OVCAR-3, HCT-116, and MCF-7 were purchased from American type culture collection (ATCC, USA). […] And all cell lines used in the experiment were tested for mycoplasma contamination every two weeks.
(§2) A549, OVCAR-3, HCT-116, and MCF-7 cells were seeded in 96-well plates, and then treated with target compounds for 72 h. Then, 20 µL MTT (5 mg/mL, in PBS) was added into each well, and dissolved in 150 µL DMSO after incubation for 4 h. Finally, the absorbance was measured with microplate reader (490 nm).

Series [2] has as its system HTB-125. In words: Selectivity index (SI) versus HTB-125 normal cells. The series is classed as cell-based. The following applies: SI = CC50/IC50; Human normal breast cell; means ± SD.
Series [3] relates to HCT-116. In words: MTT assay, anti-proliferative effect on HCT-116 cells. As to conditions: Homo sapiens, HCT-116, 72 h, read-out: IC50 HCT-116. The format is cell-based, human. The procedure: as §1, §2
Series [4] deals with Cleaved-Caspase 3 and Caspase 3. In words: Western blot of Caspase 3 and Cleaved-Caspase 3 in A549 cells. The series is classed as cell-based, human. The procedure:
Meanwhile, we also detected the expression of Cleaved-Caspase 3 and Caspase 3 after different treatment concentrations to explore the mechanism of compound 11b inducing cell apoptosis.
(§3) The cells were plated in 6-well plates and incubated with different concentrations of compound 11b for a specified time. The cells were then collected, and tested using a standard western blot as described before.

Series [5] relates to HIEC. Description: Selectivity index (SI) versus HIEC normal cells. The format is cell-based. As to conditions: SI = CC50/IC50; Human normal intestinal epithelial cells; means ± SD.
The subject of series [6] is IOSE80. In words: Selectivity index (SI) versus IOSE80 normal cells. The following applies: SI = CC50/IC50; Human normal ovarian epithelial cells; means ± SD. The series is classed as cell-based.
In series [7] the test system is PAR. In words: Western blot of PAR in A549 cells. The series is classed as cell-based, human. The following applies: best effect at 4.0 µM, P < 0.001. The procedure: PARylation is a critical post-translational modification in which ADP-ribose units are added to a wide array of target proteins by PARP-1 [33–35]. PAR is the active product of PARP-1, and the biosynthesis of PAR will be reduced while PARP-1 is inhibited. Here, we used the western blot to evaluate PAR levels and PARP-1 expression.
as §3

The test system of series [8] is HPAEpiC. Description: Selectivity index (SI) versus HPAEpiC normal cells. The series is classed as cell-based. The following applies: SI = CC50/IC50; Human normal alveolar epithelial cells; means ± SD.
Series [9] has as its system A549 cells. In words: Annexin-V/PI apoptosis assay by flow cytometry. The series is classed as cell-based, human. As to conditions: 48 h, P < 0.001. The procedure:
PARP-1 inhibitors have been reported to induce further apoptosis of cancer cells, which was also confirmed by our previous studies. An annexin-V/PI binding assay was conducted in A549 cells to evaluate the capacity of compound 11b to induce apoptosis in cancer cells. […] (Fig. 4).
A549 cells were cultured in 6-well plates (3.0 × 10^5/well), and treated with DMSO (1%) or compound 11b for 48 h. The cells were then collected, washed with PBS, and stained with FITC-Annexin-V and PI (Promega Corporation, USA). Finally, the apoptosis of A549 cells was detected by flow cytometry (Becton Dickinson and Company, USA; FACS Calibur).

The target of series [10] is T1, PARP-2 (Homo sapiens, UniProt Q9UGN5).
T1 construct: purchased BPS Bioscience, USA 80,581
In words: PARP-2 enzyme inhibition, colorimetric 96-well PARP assay kit. The series is classed as biochemical. As to conditions: in vitro enzyme, Mean ± SD.
Protocol: (§4) The PARP-1 and PARP-2 inhibition assays were performed by the colorimetric 96-well PARP assay kits provided by BPS Bioscience, USA.

The test system of series [11] is MCF-7. Description: MTT assay, anti-proliferative effect on MCF-7 cells. As to conditions: Homo sapiens, MCF7, 72 h, read-out: IC50 MCF-7. The series is classed as cell-based, human. On the procedure:
as §1, §2

Series [12] concerns the target T2, PARP-1 (Homo sapiens, UniProt P09874).
T2 construct: purchased BPS Bioscience, USA 80,580
In words: PARP-1 enzyme inhibition, colorimetric 96-well PARP assay kit. The series is classed as biochemical. The following applies: in vitro enzyme, Mean ± SD.
Protocol: as §4

For series [13], the system named is OVCAR-3. In words: MTT assay, anti-proliferative effect on OVCAR-3 cells. As to conditions: Homo sapiens, OVCAR-3, 72 h, read-out: IC50 OVCAR-3. The series is classed as cell-based, human. The procedure:
as §1, §2

Where “and” joins values, the source holds several entries; their conditions need not be identical. Equal entries are not always repeated. Bounds are passed on as bounds.

T1 sequence (Q9UGN5 whole entry): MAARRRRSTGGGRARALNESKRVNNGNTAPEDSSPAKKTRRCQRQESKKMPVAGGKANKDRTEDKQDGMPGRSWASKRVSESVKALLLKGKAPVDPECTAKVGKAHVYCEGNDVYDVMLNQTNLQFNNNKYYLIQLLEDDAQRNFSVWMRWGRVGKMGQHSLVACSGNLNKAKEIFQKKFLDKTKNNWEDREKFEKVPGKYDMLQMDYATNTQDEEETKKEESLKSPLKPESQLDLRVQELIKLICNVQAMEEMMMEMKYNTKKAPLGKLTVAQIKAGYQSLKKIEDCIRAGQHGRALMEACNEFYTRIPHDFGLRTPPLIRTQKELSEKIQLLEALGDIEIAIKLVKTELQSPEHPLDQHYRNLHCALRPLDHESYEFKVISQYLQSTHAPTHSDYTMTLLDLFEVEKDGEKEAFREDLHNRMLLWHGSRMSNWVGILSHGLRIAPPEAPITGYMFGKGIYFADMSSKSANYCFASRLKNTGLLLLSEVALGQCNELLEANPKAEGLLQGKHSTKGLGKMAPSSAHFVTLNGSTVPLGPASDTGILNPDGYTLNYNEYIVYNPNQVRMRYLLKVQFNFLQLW
T2 sequence (P09874 whole entry): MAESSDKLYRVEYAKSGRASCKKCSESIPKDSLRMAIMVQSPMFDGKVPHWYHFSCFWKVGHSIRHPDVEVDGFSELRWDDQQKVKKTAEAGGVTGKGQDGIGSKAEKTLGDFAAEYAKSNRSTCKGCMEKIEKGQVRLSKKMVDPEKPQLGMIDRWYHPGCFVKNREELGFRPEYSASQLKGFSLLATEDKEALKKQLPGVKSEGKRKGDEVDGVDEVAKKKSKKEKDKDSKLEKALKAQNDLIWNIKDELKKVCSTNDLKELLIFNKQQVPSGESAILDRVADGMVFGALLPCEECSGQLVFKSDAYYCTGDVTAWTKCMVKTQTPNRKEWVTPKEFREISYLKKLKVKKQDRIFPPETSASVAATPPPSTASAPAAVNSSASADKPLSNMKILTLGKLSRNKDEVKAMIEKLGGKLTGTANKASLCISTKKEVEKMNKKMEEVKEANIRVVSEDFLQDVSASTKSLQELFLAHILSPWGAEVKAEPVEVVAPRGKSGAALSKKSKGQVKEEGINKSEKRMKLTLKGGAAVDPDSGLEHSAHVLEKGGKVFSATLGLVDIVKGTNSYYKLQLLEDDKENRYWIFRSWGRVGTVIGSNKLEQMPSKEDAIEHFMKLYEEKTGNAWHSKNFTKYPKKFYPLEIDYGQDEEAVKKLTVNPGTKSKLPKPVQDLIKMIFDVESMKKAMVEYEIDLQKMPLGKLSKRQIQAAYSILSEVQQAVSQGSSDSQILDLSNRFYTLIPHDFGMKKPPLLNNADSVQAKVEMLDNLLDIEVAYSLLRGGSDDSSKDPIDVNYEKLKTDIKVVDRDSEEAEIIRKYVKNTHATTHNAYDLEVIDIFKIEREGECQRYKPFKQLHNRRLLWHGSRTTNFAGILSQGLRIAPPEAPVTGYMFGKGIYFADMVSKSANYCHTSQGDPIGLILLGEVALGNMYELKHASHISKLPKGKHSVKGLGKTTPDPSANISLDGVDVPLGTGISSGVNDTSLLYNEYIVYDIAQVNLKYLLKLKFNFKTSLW

For the compound `OC1CCN(Cc2cn(-c3ccccc3F)nn2)C2(CCCCC2)c2ccccc21` (centres unmarked) [Compound 11b, 2-((1-(2-fluorophenyl)-1 H-1,2,3-triazol-4-yl)methyl)-2,3,4,5-tetrahydrospiro[benzo[c]azepine-1,1’-cyclohexan]-5-ol], the IC50 came to 1.95 ± 0.33 µM in [1]; 7.45 ± 1.98 µM in [3]; 0.0326 ± 0.00197 µM in [10]; 9.21 ± 2.54 µM in series [11]; 0.0192 ± 0.00163 µM in series [12]; 4.02 ± 0.24 µM in [13]. Also, the “SI HTB-125” value in series [2] is reported as 7.06 ± 1.32. In addition, in [4], the “expression of Caspase 3” value is “decreased with the increase of compound 11b concentration”. The “ratio of Cleaved-Caspase 3/Caspase 3” value in [4] is given as “best at 4.0 µM”. Moreover, in [5], the “SI HIEC” value worked out at 6.12 ± 1.76. In addition, in series [6], the “SI IOSE80” value was 10.57 ± 2.01. The “biosynthesis of PAR” value in series [7] is reported as “reduce the biosynthesis of PAR”. The “SI HPAEpiC” value in series [8] was 15.38 and 15.38 ± 0.97. For the same compound, the “induction of apoptosis in A549 cells” value in series [9] is “induce apoptosis in a dose-dependent manner”.
`OC1CCN(Cc2cn(-c3ccc(Cl)cc3)nn2)C2(CCCCC2)c2ccccc21` (centres unmarked) [Compound 11j, 2-((1-(4-chlorophenyl)-1 H-1,2,3-triazol-4-yl)methyl)-2,3,4,5-tetrahydrospiro[benzo[c]azepine-1,1’-cyclohexan]-5-ol]: the melting point was in the range of 165.6 to 166.3 °C. Further, the half-inhibitory concentration (IC50) in series [1] was 18.8 ± 2.67 µM. For the same compound, in series [3], the IC50 was determined as 17.9 ± 1.95 µM. Moreover, in series [11], the IC50 was found to be 5.27 ± 0.92 µM. Further, the IC50 in series [13] turned out to be 5.79 ± 1.25 µM.
In the same order, the values of `OC1CCN(Cc2cn(-c3ccccc3Br)nn2)C2(CCCCC2)c2ccccc21` (centres unmarked) [Compound 11n, 2-((1-(2-bromophenyl)-1 H-1,2,3-triazol-4-yl)methyl)-2,3,4,5-tetrahydrospiro[benzo[c]azepine-1,1’-cyclohexan]-5-ol] are 168.2 to 169.8 °C, 17.9 ± 3.94 µM, 15.7 ± 1.98 µM, 10.6 ± 0.85 µM and 12.6 ± 1.55 µM.
In the same order, the values of `OC1CCN(Cc2cn(-c3cccc(Br)c3)nn2)C2(CCCCC2)c2ccccc21` (centres unmarked) [Compound 11o, 2-((1-(3-bromophenyl)-1 H-1,2,3-triazol-4-yl)methyl)-2,3,4,5-tetrahydrospiro[benzo[c]azepine-1,1’-cyclohexan]-5-ol] are 169.3 to 170.2 °C, 7.4 ± 1.75 µM, 10.8 ± 2.11 µM, 7.99 ± 2.53 µM and 4.2 ± 0.48 µM.
In the same order, the values of `Oc1ccccc1-n1cc(CN2CCC(O)c3ccccc3C23CCCCC3)nn1` (centres unmarked) [Compound 11q, 2-((1-(2-hydroxyphenyl)-1 H-1,2,3-triazol-4-yl)methyl)-2,3,4,5-tetrahydrospiro[benzo[c]azepine-1,1’-cyclohexan]-5-ol] are 156.8 to 157.2 °C, 10.6 ± 1.2 µM, over 50 µM, 8.72 ± 0.71 µM and 13.2 ± 4.09 µM.
In the case of `Oc1cccc(-n2cc(CN3CCC(O)c4ccccc4C34CCCCC4)nn2)c1` (centres unmarked) [Compound 11r, 2-((1-(3-hydroxyphenyl)-1 H-1,2,3-triazol-4-yl)methyl)-2,3,4,5-tetrahydrospiro[benzo[c]azepine-1,1’-cyclohexan]-5-ol], the melting point fell in the range of 157.4 to 158.6 °C. Moreover, the IC50 in [1] came to 11.9 ± 5.74 µM. Moreover, the IC50 in [3] worked out at 12.1 ± 0.98 µM. For the same compound, the IC50 in [11] was over 50 µM. Further, the IC50 in [13] was found to be 3.9 ± 0.26 µM.
For `Oc1ccc(-n2cc(CN3CCC(O)c4ccccc4C34CCCCC4)nn2)cc1` (centres unmarked) [Compound 11s, 2-((1-(4-hydroxyphenyl)-1 H-1,2,3-triazol-4-yl)methyl)-2,3,4,5-tetrahydrospiro[benzo[c]azepine-1,1’-cyclohexan]-5-ol], in that order: 171.1 to 172.3 °C, over 50 µM, over 50 µM, over 50 µM and over 50 µM.

The record behind these values is publication PMC10612255, “Discovery of novel 2,3,4,5-tetrahydrospiro[benzo[c]azepine-1,1’-cyclohexan]-5-ol derivatives as PARP-1 inhibitors” (BMC Chemistry, 2023).
